# Assay results: patent US20100317647A1 (priority 2009, published 2010)
# Molecular target: human Cat S (Homo sapiens, UniProt P25774)
# Test: Cathepsin enzyme inhibition assay (fluorogenic peptide substrate cleavage)
# Format: biochemical
# Settings: human Cat S 1 nM; substrate Z-Val-Val-Arg-AMC 20 μM; pH 6.5; fluorescence over 20 minutes
# Outline: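 Fluorogenic cleavage of Z-Val-Val-Arg-AMC (20 μM) by 1 nM enzyme in 100 mM potassium phosphate pH 6.5, 5 mM EDTA, 5 mM DTT, 0.001% Triton X-100. Reaction started with substrate; fluorescence (ex 360/em 465 nm) followed over 20 minutes. IC50 by standard methods.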
# Chain of human Cat S (P25774 115-331): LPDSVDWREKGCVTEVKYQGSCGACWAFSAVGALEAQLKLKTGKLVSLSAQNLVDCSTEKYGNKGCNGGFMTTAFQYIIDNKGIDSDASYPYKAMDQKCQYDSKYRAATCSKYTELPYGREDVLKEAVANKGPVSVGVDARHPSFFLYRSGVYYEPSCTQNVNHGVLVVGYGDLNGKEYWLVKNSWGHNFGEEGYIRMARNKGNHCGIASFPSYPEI
row,Structure (SMILES),IC50 [nM]
1,"N#CC1(NC(=O)[C@@H]2C[C@@H](S(=O)(=O)c3ccc(N4CC(F)(F)C4)cc3Cl)C[C@H]2C(=O)N2CC(F)(F)C2)CC1 [Example 136, (1R,2R,4R)-4-[2-Chloro-4-(3,3-difluoro-azetidin-1-yl)-benzenesulfonyl]-2-(3,3-difluoro-azetidine-1-carbonyl)-cyclopentanecarboxylic acid (1-cyano-cyclopropyl)-amide]",1.3
2,"COC[C@@H]1C[C@H](S(=O)(=O)c2ccccc2Cl)C[C@H]1C(=O)NC1(C#N)CC1 (single isomer, unassigned) [Example 105]",22.3
3,"N#CC1(NC(=O)[C@@H]2C[C@H](S(=O)(=O)c3ccccc3Cl)C[C@H]2CN2CCC(c3ccc(F)cc3)CC2)CC1 [Example 148, (1R,2R,4R)-4-(2-Chloro-benzenesulfonyl)-2-[4-(4-fluoro-phenyl)-piperidin-1-ylmethyl]-cyclopentanecarboxylic acid (1-cyano-cyclopropyl)-amide]",515
4,"N#CC1(NC(=O)[C@@H]2C[C@@H](S(=O)(=O)c3ccccc3Cl)C[C@H]2O)CC1 (racemic) [Example 48, (1R,2R,4R) and (1S,2S,4S)-4-(2-Chloro-benzenesulfonyl)-2-hydroxy-cyclopentanecarboxylic acid (1-cyano-cyclopropyl)-amide]",120
5,"CO[C@@H]1C[C@H](S(=O)(=O)c2ccc(-c3cncc(C)c3)cc2C(F)(F)F)C[C@H]1C(=O)NC1(C#N)CC1 (racemic) [Example 85, (1R,2R,4R) and (1S,2S,4S)-2-Methoxy-4-[4-(5-methyl-pyridin-3-yl)-2-trifluoromethyl-benzenesulfonyl]-cyclopentanecarboxylic acid (1-cyano-cyclopropyl)-amide]",0.5
6,"COc1ccc(-c2ccc(S(=O)(=O)[C@H]3C[C@@H](OC)[C@H](C(=O)NC4(C#N)CC4)C3)c(C(F)(F)F)c2)cn1 (racemic) [Example 78, (1R,2R,4R) and (1S,2S,4S)-2-Methoxy-4-[4-(6-methoxy-pyridin-3-yl)-2-trifluoromethyl-benzenesulfonyl]-cyclopentanecarboxylic acid (1-cyano-cyclopropyl)-amide]",0.3
7,"Cc1ccc(CO[C@@H]2C[C@H](S(=O)(=O)c3ccccc3Cl)C[C@H]2C(=O)NC2(C#N)CC2)cc1 (racemic) [Example 150, (1R,2R,4R) and (1S,2S,4S)-4-(2-Chlorophenylsulfonyl)-N-(1-cyanocyclopropyl)-2-(4-methylbenzyloxy)cyclopentanecarboxamide]",4.15
8,"N#CC1(NC(=O)[C@H]2CC[C@H](S(=O)(=O)c3ccc(F)cc3Cl)C2)CC1 (racemic) [Example 92, (1S,3S) and (1R,3R)-3-(2-Chloro-4-fluoro-benzenesulfonyl)-cyclopentanecarboxylic acid (1-cyano-cyclopropyl)-amide]",385
9,"CO[C@@H]1C[C@H](S(=O)(=O)c2ccc(-c3ccc(S(C)(=O)=O)cc3)cc2C(F)(F)F)C[C@H]1C(=O)NC1(C#N)CC1 (racemic) [Example 75, (1R,2R,4R) and (1S,2S,4S)-4-(4′-Methanesulfonyl-3-trifluoromethyl-biphenyl-4-sulfonyl)-2-methoxy-cyclopentanecarboxylic acid (1-cyano-cyclopropyl)-amide]",0.5
10,"Cc1cc(Cl)ccc1S(=O)(=O)[C@@H]1C[C@@H](C(=O)NCC#N)[C@H](C(=O)N2CCOCC2)C1 [Example 8, (1R,2R,4R)-4-(4-Chloro-2-methyl-benzenesulfonyl)-2-(morpholine-4-carbonyl)-cyclopentanecarboxylic acid cyanomethyl-amide]",0.4
11,"CO[C@@H]1C[C@H](S(=O)(=O)c2ccc(-c3cnn(C)c3)cc2C(F)(F)F)C[C@H]1C(=O)NC1(C#N)CC1 [Example 138, (1R,2R,4R)-2-Methoxy-4-[4-(1-methyl-1H-pyrazol-4-yl)-2-trifluoromethyl-benzenesulfonyl]-cyclopentanecarboxylic acid (1-cyano-cyclopropyl)-amide]",0.4
12,"N#CC1(NC(=O)[C@@H]2C[C@@H](S(=O)(=O)c3ccccc3)C[C@H]2C(=O)O)CC1 [Example 10, (1R,2R,4R)-4-Benzenesulfonyl-2-(1-cyano-cyclopropylcarbamoyl)-cyclopentanecarboxylic acid]",425
13,"CO[C@@H]1C[C@H](S(=O)(=O)c2ccc(-c3ccnc(C)c3)cc2C(F)(F)F)C[C@H]1C(=O)NC1(C#N)CC1 [Example 139, (1R,2R,4R)-2-Methoxy-4-[4-(2-methyl-pyridin-4-yl)-2-trifluoromethyl-benzenesulfonyl]-cyclopentanecarboxylic acid (1-cyano-cyclopropyl)-amide]",0.3

# Continued, values first:
row,IC50 [nM],Structure (SMILES)
1,0.54,"CC(=O)N1CCN(c2ccc(S(=O)(=O)[C@H]3C[C@@H](C(=O)NC4(C#N)CC4)[C@H](C(=O)N4CCC(F)(F)C4)C3)c(Cl)c2)CC1 [Example 209, (1R,2R,4S)-4-[4-(4-Acetyl-piperazin-1-yl)-2-chloro-benzenesulfonyl]-2-(3,3-difluoro-pyrrolidine-1-carbonyl)-cyclopentanecarboxylic acid (1-cyano-cyclopropyl)-amide]"
2,1.4,"CO[C@@H]1C[C@H](S(=O)(=O)c2ccc(N3CC(F)(F)C3)cc2C(F)(F)F)C[C@H]1C(=O)NC1(C#N)CC1 (racemic) [Example 206, (1R,2R,4R) and (1S,2S,4S)-4-[4-(3,3-Difluoro-azetidin-1-yl)-2-trifluoromethyl-benzenesulfonyl]-2-methoxy-cyclopentanecarboxylic acid (1-cyano-cyclopropyl)-amide]"
3,0.325,"Cc1cccc(S(=O)(=O)[C@@H]2C[C@@H](C(=O)NC3(C#N)CC3)[C@H](C(=O)N3CCC(F)(F)C3)C2)c1 [Example 205, (1R,2R,4R)-2-(3,3-Difluoro-pyrrolidine-1-carbonyl)-4-(toluene-3-sulfonyl)-cyclopentanecarboxylic acid (1-cyano-cyclopropyl)-amide]"
4,92,"CCOC(=O)N1CCC(C#N)(NC(=O)[C@@H]2C[C@@H](S(=O)(=O)c3ccc(Cl)cc3Cl)C[C@H]2OCc2ccc(Cl)cc2)CC1 (racemic) [Example 242, 4-{[(1R,2R,4R) and (1S,2S,4S)-2-(4-Chloro-benzyloxy)-4-(2,4-dichloro-benzenesulfonyl)-cyclopentanecarbonyl]-amino}-4-cyano-piperidine-1-carboxylic acid ethyl ester]"
5,0.135,"N#CC1(NC(=O)[C@@H]2C[C@@H](S(=O)(=O)c3cccc(-c4ccnc(Cl)c4)c3)C[C@H]2C(=O)N2CCC(F)(F)C2)CC1 [Example 204, (1R,2R,4R)-4-[3-(2-Chloro-pyridin-4-yl)-benzenesulfonyl]-2-(3,3-difluoro-pyrrolidine-1-carbonyl)-cyclopentanecarboxylic acid (1-cyano-cyclopropyl)-amide]"
6,1.25,"COCc1cn(-c2ccc(S(=O)(=O)[C@@H]3C[C@H](OC)[C@@H](C(=O)NC4(C#N)CC4)C3)c(C(F)(F)F)c2)nn1 (racemic) [Example 246, (1S,2S,4S) and (1R,2R,4R)-2-Methoxy-4-[4-(4-methoxymethyl-[1,2,3]triazol-1-yl)-2-trifluoromethyl-benzenesulfonyl]-cyclopentanecarboxylic acid (1-cyano-cyclopropyl)-amide]"
7,5.8,"N#CC1(NC(=O)[C@@H]2C[C@@H](S(=O)(=O)c3ccccc3Cl)C[C@H]2OCc2ccc(Cl)cc2)CC1 (racemic) [Example 222, (1R,2R,4R) and (1S,2S,4S)-4-(2-Chloro-benzenesulfonyl)-2-(4-chloro-benzyloxy)-cyclopentanecarboxylic acid (1-cyano-cyclopropyl)-amide]"
8,6.25,"CCN1CCC(C#N)(NC(=O)[C@@H]2C[C@@H](S(=O)(=O)c3ccccc3C(F)(F)F)C[C@H]2OCc2ccc(Cl)cc2)CC1 (racemic) [Example 239, (1R,2R,4R) and (1S,2S,4S)-2-(4-Chloro-benzyloxy)-4-(2-trifluoromethyl-benzenesulfonyl)-cyclopentanecarboxylic acid (4-cyano-1-ethyl-piperidin-4-yl)-amide]"
9,0.63,"CN1CCN(c2ccc(S(=O)(=O)[C@@H]3C[C@@H](C(=O)NC4(C#N)CC4)[C@H](C(=O)N4CC(F)(F)C4)C3)c(Cl)c2)CC1 [Example 158, (1R,2R,4R)-4-[2-Chloro-4-(4-methyl-piperazin-1-yl)-benzenesulfonyl]-2-(3,3-difluoro-azetidine-1-carbonyl)-cyclopentanecarboxylic acid (1-cyano-cyclopropyl)-amide]"
10,0.195,"Cc1cc(-c2cccc(S(=O)(=O)[C@@H]3C[C@@H](C(=O)NC4(C#N)CC4)[C@H](C(=O)N4CCC(F)(F)C4)C3)c2)ccn1 [Example 203, (1R,2R,4R)-2-(3,3-Difluoro-pyrrolidine-1-carbonyl)-4-[3-(2-methyl-pyridin-4-yl)-benzenesulfonyl]-cyclopentanecarboxylic acid (1-cyano-cyclopropyl)-amide]"
11,0.725,"CO[C@@H]1C[C@H](S(=O)(=O)c2ccc(-c3cnn(CC(=O)O)c3)cc2C(F)(F)F)C[C@H]1C(=O)NC1(C#N)CC1 (racemic) [Example 185, (4-{4-[(1R,3R,4R) and (1S,3S,4S)-3-(1-Cyano-cyclopropylcarbamoyl)-4-methoxy-cyclopentanesulfonyl]-3-trifluoromethyl-phenyl}-pyrazol-1-yl)-acetic acid]"
12,25.5,"COc1ccc(COC[C@@H]2C[C@H](S(=O)(=O)c3ccc(F)cc3Cl)C[C@H]2C(=O)NC2(C#N)CC2)cc1 [Example 153, (1R,2R,4S)-4-(2-Chloro-4-fluoro-benzenesulfonyl)-2-(4-methoxy-benzyloxymethyl)-cyclopentanecarboxylic acid (1-cyano-cyclopropyl)-amide]"
13,6.6,"CO[C@@H]1C[C@H](S(=O)(=O)c2ccc(N3CCN(C4CC4)CC3)cc2C(F)(F)F)C[C@H]1C(=O)NC1(C#N)CC1 (racemic) [Example 215, (1R,2R,4R) and (1S,2S,4S)-4-[4-(4-Cyclopropyl-piperazin-1-yl)-2-trifluoromethyl-benzenesulfonyl]-2-methoxy-cyclopentanecarboxylic acid (1-cyano-cyclopropyl)-amide]"
